Test results published in patent US6933310B1, “Therapeutic agent for amyotrophic lateral sclerosis (ALS)” (Mitsubishi Pharma Corporation, priority 2000, dated 2005).

Key:
Wobbler mice [1] = experiment: Forelimb grip strength in Wobbler mice; format: in vivo, mouse; details: 10 mg/kg orally, 4 weeks, vs control group (FIG. 2)
Description: (§1) Wobbler mice (Ikeda K. et al., Ann. Neurol. vol. 34, p304, 1993; Mitsumoto H. et al., Ann. Neurol. vol. 36, pp142 to 148, 1994; Mitsumoto H. et al., Science, vol. 265, pp1107 to 1110, 1994) were used.
At 3 to 4 weeks old, with the development of the symptom of body tremors, Wobbler mice were diagnosed with the onset of the disease. Immediately after being diagnosed to have the beginnings of the disease, the mice were orally administered with the drug of the present invention (3-methyl-1-phenyl-2-pirazoline-5-on; also referred to as MCI-186 in the drawings) (10 mg/kg), and the mice of a control group were administered with vehicles, by a blind test continually for 4 weeks. […]
The grip strength of the forelimb was measured (Ikeda et al., Neuromusc. Disord., 5, (1995), 383–390; K. Ikeda et al., J. Neurol. Sci., 160, (1998) 9–15; K. Ikeda et al., Neurosci. Lett., 250 (1998) 9–12; K. Ikeda et al., Muscle Nerve, 18 (1995) 1344–1347; K. Ikeda et al., Neurol. Res., 17 (1995) 445–448; K. Ikeda et al., Ann. Neurol., 37 (1995) 505–511; K. Ikeda et al., Brain Res., 726 (1996) 91–97; H. Mitsumoto et al., Ann. Neurol., 36 (1994) 142–148; and H. Mitsumoto et al., Science, 265 (1994) 1107–1110). […]
The scale of the degree of forelimb deformity was analyzed by the non-parametric Wilcoxon signed rank-sum test. […]

[2] = National Cancer Institute Report, 89, 1978; cited from earlier work
Wobbler mice [3] = experiment: Forelimb deformity grading in Wobbler mice; format: in vivo, mouse; details: 10 mg/kg orally, 4 weeks, vs control group (FIG. 1)
Description: as §1
(§2) At 3 to 4 weeks old, with the development of the symptom of body tremors, Wobbler mice were diagnosed with the onset of the disease. Immediately after being diagnosed to have the beginnings of the disease, the mice were orally administered with the drug of the present invention (3-methyl-1-phenyl-2-pirazoline-5-on; also referred to as MCI-186 in the drawings) (10 mg/kg), and the mice of a control group were administered with vehicles, by a blind test continually for 4 weeks. The administration of the drug was completed at 7 to 8 weeks old after birth, and the test was conducted with n=10 for each test group.
The degree of forelimb deformity was classified into four grades: 1 (paw atrophy), 2 (curled digits), 3 (curled wrists), and 4 (forelimb flexion to chest), and then evaluated. The progress from 1 to 4 means that the symptom became worse.
The scale of the degree of forelimb deformity was analyzed by the non-parametric Wilcoxon signed rank-sum test. Muscle strength, weight of biceps muscle, mean diameter of muscle fibers and number of motor neurons were statistically analyzed by unpaired Student's t-test. In all tests, the significance level of 5% was set for both sides.

Wobbler mice [4] = experiment: Weight and morphology of right brachial biceps muscle in Wobbler mice; format: in vivo, mouse; details: 10 mg/kg orally, 4 weeks
Description: as §1, §2
After the end of drug administration, Wobbler mice (n=10 per group) were ether anesthetized, and then the right brachial biceps muscles were excised under dissecting microscope. The excised biceps muscles were correctly measured, and then frozen. […]
(§3) The scale of the degree of forelimb deformity was analyzed by the non-parametric Wilcoxon signed rank-sum test. Muscle strength, weight of biceps muscle, mean diameter of muscle fibers and number of motor neurons were statistically analyzed by unpaired Student's t-test. […]

mouse = details: intraabdominal administration; cited from earlier work
Wobbler mice [5] = experiment: Number of spinal motor neurons in Wobbler mice; format: in vivo, mouse; details: 10 mg/kg orally, 4 weeks, cervical spinal cord C5-6, vs control group (FIG. 4)
Description: as §1, §2
Wobbler mice (n=10 per group) that had been used for morphological study on the right brachial biceps muscles were perfused via an intracardiac catheter with phosphate buffered saline, and then 4% paraformaldehyde/1% glutaraldehyde/0.1 M sodium phosphate buffer (pH 7.4). […]
as §3

ALS = details: some reported test results; cited from earlier work
ALS patients = details: administered intraspinally to ALS patients; cited from earlier work

In the case of CC1=NN(c2ccccc2)C(=O)C1 [3-methyl-1-phenyl-2-pirazoline-5-on], the “muscle strength of the forelimb (grip strength)” value (Wobbler mice [1]) is given as “the decrease in muscle strength was delayed”, the carcinogenicity [2] is given as “noncarcinogenicity” and the “degree of forelimb deformity (Grades 1 to 4)” value (Wobbler mice [3]) is given as “the progress of muscle deformity was delayed”. The “mean diameter of muscle fibers (mean±SEM)” value (Wobbler mice [4]; right brachial biceps, P<0.01 vs control 16.8±0.6 μm) was 20.3±0.8 μm, the “weight of the right brachial biceps muscle” value (Wobbler mice [4]; vs control group (FIG. 3)) was “significantly increased” and the LD50 (mouse) was 2012 mg/kg. For the same compound, the “number of spinal motor neurons” value (Wobbler mice [5]) was “increased”.
In the case of Nc1nc2ccc(OC(F)(F)F)cc2s1 [riluzole], the “effectiveness against ALS” value (ALS) is given as “effectiveness against ALS could not be confirmed”.
For “human recombinant Cu/Zn SOD: human recombinant Cu/Zn superoxide dismutase administered intraspinally to ALS patients”, the “therapeutic effect in ALS patients” value (ALS patients) is given as “effective therapeutic effects were not obtained”.
